According to PubChem BioAssay AID179 (DTP/NCI, 2004):
Activity calls are given as the source filed them.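 Rule for the calls: active = compounds giving half or more protection of infected cells from virus-caused growth loss, again on retest; inactive = the rest.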

System: CEM cells HIV-1 protection, formazan growth assay
Experiment: NCI AIDS Antiviral Assay
Conditions: for IC50: measured here: growth of uninfected CEM cells
Method in brief: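 Category rules: moderately active means at least 50% protection on retest, and confirmed active means 100% protection reproducibly. The underlying data came from a formazan growth assay in HIV-1-infected CEM cells.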

CC(CO)CS(=O)(=O)O (stereo not given)
EC50: > 200 µM
IC50: > 200 µM

CC1(C)SC2C(NC(=O)C(N)c3ccccc3)C(=O)N2C1C(=O)O (stereo not given)
EC50: > 200 µM
IC50: > 200 µM

COC(=O)c1cc(C(=O)Nc2cc(C(=CCC[C@H]3CC[C@@]4(C)[C@@H](CC[C@@H]5[C@@H]4CC[C@]4(C)[C@@H](C(C)CCCC(C)C)CC[C@@H]54)C3)c3cc(NC(=O)c4ccc(OC)c(C(=O)OC)c4)c(OC)c(C(=O)OC)c3)cc(C(=O)OC)c2OC)ccc1OC (stereo not given in full)
EC50: > 100 µM
IC50: > 100 µM

CN1C/C(=C\c2ccncc2)C(=O)/C(=C/c2ccncc2)C1
EC50: 52.5 µM
IC50: > 200 µM

O=S(=O)(c1ccc(Cl)cc1)c1ccccc1C1=NCCN1
EC50: > 200 µM
IC50: > 200 µM

COc1ccc(C2Oc3c(cccc3OC)C=C2[N+](=O)[O-])cc1OC (stereo not given)
EC50: > 200 µM
IC50: 1.2 µM

O=C(CSC(=S)N1CCOCC1)Nc1nc2c(s1)CCCC2
EC50: > 72.4 µM
IC50: 61.7 µM

CN=C(N)c1ccc(N=C(N)c2cccc(C(N)=Nc3ccc(C(N)=NC)cc3)c2)cc1
EC50: > 200 µM
IC50: > 200 µM

CC1=C(c2cc(C(=O)Nc3cc(C)ccc3C)nc(N)n2)Sc2ccccc2N1
EC50: > 12.9 µM
IC50: > 12.9 µM

CSCCCNC(=O)c1csc([C@@H](CSC)NC(=O)CCNC(=O)[C@@H](NC(=O)OCC(Br)(Br)Br)C(C)O)n1 (stereo not given in full)
EC50: > 166 µM
IC50: > 166 µM

O=C(CCCN1CCC2(CC1)C(=O)NCN2c1ccccc1)c1ccc(F)cc1
EC50: > 200 µM
IC50: 13.5 µM

CC/C(N)=N\NC(=O)OC(C)(C)C
EC50: > 200 µM
IC50: > 200 µM

CSc1nc(Cl)c2c(n1)Sc1nc3ccccc3n1N=C2
EC50: > 100 µM
IC50: 55 µM

O=C(O)C1(C(=O)O)CC1
outcome: inactive

O=C1NNC(=O)C2C3C=CC(O3)C12 (stereo not given)
EC50: > 200 µM
IC50: > 200 µM

S=C1N(/N=C/c2c3ccccc3cc3ccccc23)C(=Nc2ccccc2)C(=Nc2ccccc2)N1c1ccccc1
EC50: > 200 µM
IC50: > 200 µM

N#CC(C(=O)/C(=N\Nc1nc(=S)[nH]n1N)C(C#N)c1ccc(Cl)cc1)c1ccc(Cl)cc1 (stereo not given)
EC50: > 53.7 µM
IC50: > 53.7 µM

CCCCCCCCCCCCN1C(=O)c2ccccc2[Se]1=O (stereo not given)
EC50: > 2.75 µM
IC50: > 2.75 µM

Cc1ccc(S(=O)(=O)N/N=C/c2oc(-c3ccccc3Cl)c(-c3ccccc3Cl)c2[N+](=O)[O-])cc1
EC50: > 7.08 µM
IC50: > 7.08 µM

Cc1cn(C2CC(N=[N+]=[N-])C(COC(=O)C3OC(C)(C)O[C@@]34CC[C@H]3[C@@H]5CCC6=CC(=O)C=C[C@]6(C)[C@H]5[C@@H](O)C[C@@]34C)O2)c(=O)[nH]c1=O (stereo not given in full)
EC50: 0.0589 µM
IC50: 11.5 µM

O=C(CC12C3C4C1C1C2C3C41CC(=O)NO)NO (stereo not given)
EC50: > 251 µM
IC50: 49 µM

NCCC(=O)NCS(=O)(=O)O
EC50: > 200 µM
IC50: > 200 µM

c1ccc(CNN2CN(NCc3ccccc3)CN(NCc3ccccc3)C2)cc1
EC50: > 100 µM
IC50: 70.8 µM

CN(NC(=O)c1ccco1)C1=NCCCCN1
EC50: > 200 µM
IC50: > 200 µM

N.N.N.O=N[O-].O=N[O-].O=N[O-].[Co+3]
outcome: inactive

CC(=O)CCCCC(=O)Nc1ccc(CC(NC(=O)OC(C)(C)C)C(=O)NCC(=O)OCc2ccccc2)cc1 (stereo not given)
EC50: > 200 µM
IC50: 12.9 µM

CC(=O)N1c2ccccc2C2=CC3C4C(=O)N(c5ccccc5)C(=O)C4C21C1C(=O)N(c2ccccc2)C(=O)C31 (stereo not given)
outcome: inactive

CCC1c2c(cc(=O)[nH]c2O)C(=O)N1Cc1ccccc1 (stereo not given)
EC50: > 398 µM
IC50: > 398 µM

O=C1c2ccccc2N2OC3(N4CCCC4)CCCC3C12c1ccccc1 (stereo not given)
EC50: > 38 µM
IC50: > 38 µM

Cc1ccc(C(=O)Nc2ccc(S(=O)(=O)O)c3cc(S(=O)(=O)O)cc(S(=O)(=O)O)c23)cc1N
EC50: > 200 µM
IC50: > 200 µM

COc1c2cc(C(C)(C)C)cc1Cc1cccc(c1O)Cc1cc(C(C)(C)C)cc(c1OC)Cc1cccc(c1O)Cc1cc(C(C)(C)C)cc(c1OC)Cc1cccc(c1O)C2
EC50: > 151 µM
IC50: > 151 µM

COC(=O)C1CCC(=O)N1C(c1ccccc1)c1cc(OC)c(OC)c(OC)c1 (stereo not given)
EC50: > 200 µM
IC50: 34.7 µM

Cc1cc(S(=O)(=O)n2ccnc2Oc2ccccc2N)c(SSc2cc(Cl)c(C)cc2S(=O)(=O)n2ccnc2Oc2ccccc2N)cc1Cl
EC50: > 100 µM
IC50: 19.5 µM

c1ccn2nncc2c1
EC50: > 200 µM
IC50: > 200 µM

C/C(O)=C(\N=O)C(=O)Nc1ccc(Cl)cc1Cl
EC50: > 339 µM
IC50: 145 µM

Cc1ccc(C(=O)O)c(O)c1
EC50: > 1620 µM
IC50: 1050 µM

Oc1ccc2ccccc2c1-c1c(Nc2ccccc2)ccc2ccccc12
EC50: > 50.1 µM
IC50: 8.91 µM

COc1cccc(NC(=O)CC(=O)NN2C(=O)/C(=C/c3ccc(N(CCC#N)CCC#N)cc3)N=C2c2cc([N+](=O)[O-])ccc2Cl)c1
EC50: > 11 µM
IC50: 7.24 µM

NC(=O)CCC(F)(C(N)=O)C(N)=O
EC50: > 200 µM
IC50: > 200 µM

COC(=O)/C(C#N)=C(\Nc1ccccc1)N1CCCC1
EC50: > 200 µM
IC50: 138 µM

O=c1cn[nH]c2ccccc12
EC50: > 741 µM
IC50: > 741 µM

Cc1nnc2c3c(-c4ccccc4)c(-c4ccccc4)oc3nc(N(C)C)n12
outcome: inactive

NC(N)=N/N=C(\c1ccc(F)cc1)C1CC1
EC50: > 200 µM
IC50: 33.9 µM

[N-]=[N+]=Nc1cc(=O)n2c3c(cccc13)CCC2
outcome: inactive

CC(C)(C)c1c(C(C)(C)C)c(=O)c1=O
EC50: > 200 µM
IC50: > 200 µM

CC(=O)OCC1OC(n2c(C)c(C)c(C)c(C#N)c2=S)C(OC(C)=O)C(OC(C)=O)C1OC(C)=O (stereo not given)
EC50: > 200 µM
IC50: > 200 µM

COc1cccc(-c2nc(-c3cnccn3)n(C/C=C/c3ccccc3)n2)c1
EC50: 178 µM
IC50: > 200 µM

N#Cc1c(N2CCCC2)ncn(Cc2ccccc2)c1=O
EC50: > 200 µM
IC50: > 200 µM

CC(=O)SSC12CC3CC(CC(C3)C1)C2
EC50: > 200 µM
IC50: > 200 µM

CC(=O)OCC(=O)OC[C@H](OCc1ccccc1)[C@@H]1[C@H](OC(C)=O)C(=O)N1Cc1ccccc1
EC50: > 200 µM
IC50: 145 µM

O=C1NN=C(C2CCCCC2)C12CCCCC2
EC50: > 214 µM
IC50: 67.6 µM

CCOC(=O)c1[nH]cc(C)c1-c1ccc2c(-c3ccccc3)nc3ccccc3n12
EC50: > 200 µM
IC50: 3.16 µM

CC(=O)c1sc(-c2nc(C)c(C(=O)/C=C\c3ccc(/C=C\C(=O)c4sc(-c5nc(C)c(C(C)=O)s5)nc4C)cc3)s2)nc1C
EC50: > 28.2 µM
IC50: > 28.2 µM

COC(=O)c1ccc(C)cc1C1CN=NC12Cc1cc(C)c(C)cc1C2=O (stereo not given)
EC50: > 200 µM
IC50: 22.4 µM

CC12CC(=O)NC(=O)N1CCS2 (stereo not given)
EC50: 214 µM
IC50: 562 µM

C=CCOc1cc2c(cc1C(C)c1ccc(OC)cc1)OCO2 (stereo not given)
EC50: > 32.4 µM
IC50: 0.708 µM

COC(=O)[C@@]12CSC[C@]1(C(=O)OC)N[C@@H](c1ccccc1O)C2
EC50: > 200 µM
IC50: > 200 µM

ClC1=NSC(Cl)=NS1
EC50: > 53.7 µM
IC50: > 53.7 µM

C[C@]12CCCO[C@@H]1CC[C@@H]1[C@@H]2CC[C@]2(C)[C@@H](O)CC[C@@H]12
EC50: > 200 µM
IC50: > 200 µM

COc1ccc(-c2nc3sc(-c4ccc(OC)c(OC)c4)nc3s2)cc1OC
EC50: > 200 µM
IC50: > 200 µM

Nc1c(N2CCCCC2)c(=O)nc2[nH]/c(=C\c3ccco3)c(=O)n12
EC50: > 200 µM
IC50: 158 µM

O=C1/C(=C/c2ccc(Cl)c(Cl)c2)CN(C(=O)CCN2CCOCC2)C/C1=C\c1ccc(Cl)c(Cl)c1
EC50: > 22.9 µM
IC50: 0.12 µM

Cc1ccc(NC(=O)C(=O)C(C(=O)/C=C/c2ccccc2)C2OC(=O)c3ccccc32)c(C)c1 (stereo not given)
EC50: > 427 µM
IC50: 63.1 µM

Cc1ccc2[nH]c3c(c2c1)C1CCC(C(C)(C)C)CC1C1C(=O)N(c2ccc(Oc4ccccc4)cc2)C(=O)C31 (stereo not given)
EC50: > 200 µM
IC50: 10.5 µM

N#Cc1nc(CCC(C(=O)O)N2C(=O)c3ccccc3C2=O)oc1N (stereo not given)
EC50: > 100 µM
IC50: > 100 µM

Nc1nc(O)c(N=O)c(=O)[nH]1
EC50: > 200 µM
IC50: > 200 µM

NC1=NCN2C(=N1)OC1C(O)C(CO)OC12 (stereo not given)
EC50: > 200 µM
IC50: > 200 µM

NC(=S)N/N=C(/CC(=O)c1ccccc1)C(=O)Nc1ccc(Cl)c(Cl)c1
EC50: > 87.1 µM
IC50: > 87.1 µM

NC(=S)Nc1cc(Cl)ccc1Cl
EC50: > 32.4 µM
IC50: > 32.4 µM

Oc1cc(O)c(Oc2cccc(O)c2O)c(O)c1
EC50: > 1000 µM
IC50: 38.9 µM

CCOC(=O)C1=C(NC)OC/C1=N\NC(=O)c1ccccc1O
EC50: > 93.3 µM
IC50: 14.1 µM

C=C1CC(COc2ccc3ccc(=O)oc3c2)(c2ccccc2)OC1=O (stereo not given)
EC50: > 2 µM
IC50: 0.724 µM

COC(=O)CC(=O)C=P(c1ccccc1)(c1ccccc1)c1ccccc1
EC50: > 347 µM
IC50: 20.4 µM

NC(N)=N/N=C\c1c(-c2ccccc2)nc2sccn12
EC50: > 200 µM
IC50: 12 µM

O=C(NCCCCN1CCCCCC1)C1c2ccccc2-c2ccccc21
EC50: > 200 µM
IC50: 91.2 µM

CCOC(=O)CCCN(c1[nH]c(C)c(C)c1C#N)S(=O)(=O)c1ccc(C)cc1
EC50: > 200 µM
IC50: 81.3 µM

C[C@@H](Br)[C@@H]1CC[C@H]2c3[nH]c4ccccc4c3CCN2C1
EC50: > 200 µM
IC50: 17.4 µM

N#CC(C#N)=Cc1ccc(C=C(C#N)C#N)cc1
EC50: > 200 µM
IC50: 8.51 µM

N#C/C(=C\c1ccc2ccccc2c1)c1ccccc1
EC50: > 14.8 µM
IC50: > 14.8 µM

Cc1nn(C(=O)Cc2ccccc2)c2c1C(c1ccccc1)SC(N)=N2 (stereo not given)
EC50: 148 µM
IC50: 195 µM

O=C1CCCC/C1=C1/SC(=Nc2ccccc2)C(=Nc2ccccc2)N1c1ccccc1
EC50: > 200 µM
IC50: > 200 µM

O=C1C2=C(c3ccccc31)C(c1ccccc1)N1C(=O)CSC1=N2 (stereo not given)
EC50: > 77.6 µM
IC50: 34.7 µM

CC(=O)OC(C)(C)c1ccc2c(c1)C(=O)C[C@@H]1[C@](C)(C#N)CCC[C@]21C
EC50: > 200 µM
IC50: 126 µM

COC(=O)/C(C#N)=C/NC(=S)Nc1ccccc1
EC50: > 200 µM
IC50: > 200 µM

CC(CCC(=O)O)[C@H]1CCC2[C@@H]3CC[C@@H]4CC(O)CC[C@]4(C)C3CC[C@@]21C (stereo not given in full)
EC50: > 200 µM
IC50: > 100 µM
